Measurements reported in patent US11512053B2, “Arginine methyltransferase inhibitors and uses thereof” (priority 2013, dated 2022).
Read-outs that look alike come from different tables or passages of the source.

Target: T1, full-length human PRMT3 isoform 1 (GST-tagged) (Homo sapiens, UniProt O60678)
T1 construct: GST-tagged PRMT3; made in house; host or cells: E. coli BL21(DE3) Gold
Assay: PRMT3 Biochemical Assay (3H-SAM Flashplate, peptide substrate)
Text: General Materials. S-adenosylmethionine (SAM), S-adenosylhomocysteine (SAH), bicine, Tween20, dimethylsulfoxide (DMSO), bovine skin gelatin (BSG),), isopropyl-β-D-thiogalactopyranoside (IPTG), and Tris(2-carboxyethyl)phosphine hydrochloride solution (TCEP) were purchased from Sigma-Aldrich at the highest level of purity possible. ^3H-SAM was purchase from American Radiolabeled Chemicals with a specific activity of 80 Ci/mmol. 384-well streptavidin Flashplates were purchased from PerkinElmer.
Substrates. Peptide containing the classic RMT substrate motif was synthesized with an N-terminal linker-affinity tag motif and a C-terminal amide cap by 21st Century Biochemicals. The peptide was purified by high-performance liquid chromatography (HPLC) to greater than 95% purity and confirmed by liquid chromatography mass spectrometry (LC-MS). The sequence was Biot-Ahx-[…]-amide (SEQ ID NO.:11).
Molecular Biology: Full-length human PRMT3 (NM_005788.3) isoform 1 transcript clone was amplified from an HEK 293 cDNA library and subcloned into pGEX-KG (GE Life Sciences). The resulting construct encodes an N-terminal GST tag and a thrombin cleavage sequence ([…] […] […] […] S) (SEQ ID NO.:12) fused directly to Cys 2 of PRMT3.
Protein Expression. E. coli (BL21(DE3) Gold, Stratagene) made competent by the CaCl2) method were transformed with the PRMT3 construct and ampicillin selection. Protein over-expression was accomplished by growing the PRMT3 expressing E. coli clone and inducing expression with 0.3 mM IPTG at 16° C. The culture was grown for 12 hours, harvested by centrifugation, and stored at −80° C. for purification.
Protein Purification. […] GST-tagged PRMT3 was eluted with 50 mM Tris, 2 mM glutathione, pH 7.1 and 50 mM Tris, 20 mM glutathione, pH 7.1. Pooled fractions were dialysed in 20 mM Tris, 50 mM NaCl, 5% glycerol, 1 mM EDTA, 1 mM DTT, pH7.5 (Buffer B) and applied to a Q Sepharose Fast Flow column. GST-tagged PRMT3 was eluted by 500 mM NaCl in buffer B. Pooled fractions were dialyzed in 25 mM phosphate buffer, 100 mM NaCl, 5% glycerol, 2 mM DTT, pH 6.8 (Buffer C) and loaded on to a ceramic hydroxyapatite column. GST-tagged PRMT3 eluted with 25-400 mM phosphate in buffer C. Protein was concentrated and buffer was exchanged to 20 mM Tris, 150 mM NaCl, 5% glycerol, 5 mM β-mercaptoethanol, pH7.8 by ultrafiltration. The purity of recovered protein was 70%.
General Procedure for PRMT3 Enzyme Assays on Peptide Substrates. The assays were all performed in a buffer consisting of 20 mM Bicine (pH=7.6), 1 mM TCEP, 0.005% BSG, and 0.002% Tween 20, prepared on the day of use. Compounds in 100% DMSO (1 ul) were spotted into a polypropylene 384-well V-bottom plates (Greiner) using a Platemate Plus outfitted with a 384-channel head (Thermo Scientific). DMSO (1 ul) was added to Columns 11, 12, 23, 24, rows A-H for the maximum signal control and 1 ul of SAH, a known product and inhibitor of PRMT3, was added to columns 11, 12, 23, 24, rows I-P for the minimum signal control. A cocktail (40 ul) containing the PRMT3 enzyme was added by Multidrop Combi (Thermo-Fisher). The compounds were allowed to incubate with PRMT3 for 30 min at room temperature, then a cocktail (10 ul) containing SAM and peptide was added to initiate the reaction (final volume=51 ul). The final concentrations of the components were as follows: PRMT3 was 0.5 nM, ^3H-SAM was 100 nM, non-radiolabeled SAM was 1.8 uM, peptide was 330 nM, SAH in the minimum signal control wells was 1 mM, and the DMSO concentration was 2%. The assays were stopped by the addition of potassium chloride (10 ul) to a final concentration of 100 mM. 50 ul of the reaction in the 384-well polypropylene plate was then transferred to a 384-well Flashplate and the biotinylated peptides were allowed to bind to the streptavidin surface for at least 1 hour before being washed once with 0.1% Tween20 in a Biotek ELx405 plate washer. […]

[1] = single experiment or average of multiple experiments

T1 sequence (O60678 with tags, fused parts or gaps): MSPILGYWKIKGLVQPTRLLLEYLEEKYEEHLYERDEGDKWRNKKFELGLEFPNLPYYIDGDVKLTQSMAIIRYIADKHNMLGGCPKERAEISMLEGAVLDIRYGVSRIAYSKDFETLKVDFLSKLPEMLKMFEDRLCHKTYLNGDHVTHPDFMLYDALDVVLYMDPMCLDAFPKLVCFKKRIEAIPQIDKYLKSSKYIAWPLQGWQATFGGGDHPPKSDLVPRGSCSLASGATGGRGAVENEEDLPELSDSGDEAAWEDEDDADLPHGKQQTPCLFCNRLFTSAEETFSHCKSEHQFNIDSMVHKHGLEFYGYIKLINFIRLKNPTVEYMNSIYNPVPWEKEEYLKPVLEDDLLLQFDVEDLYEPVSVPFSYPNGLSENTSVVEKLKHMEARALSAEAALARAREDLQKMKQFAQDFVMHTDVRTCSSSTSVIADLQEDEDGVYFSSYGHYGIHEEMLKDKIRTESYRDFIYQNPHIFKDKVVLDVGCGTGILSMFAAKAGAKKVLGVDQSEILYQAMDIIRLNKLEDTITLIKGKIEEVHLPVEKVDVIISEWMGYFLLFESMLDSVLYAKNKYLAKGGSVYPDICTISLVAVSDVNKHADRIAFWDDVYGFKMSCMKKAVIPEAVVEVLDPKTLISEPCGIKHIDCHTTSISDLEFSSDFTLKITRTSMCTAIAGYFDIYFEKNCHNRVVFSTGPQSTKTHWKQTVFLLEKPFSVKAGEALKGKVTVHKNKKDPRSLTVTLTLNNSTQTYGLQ

SMILES | IC50 [1] [µM] | IC50 [µM]
CNCCN(C)Cc1c[nH]nc1C#Cc1cccc(OC)c1 [Compound 1] | 6.83 | –
CNCCN(C)Cc1c[nH]nc1C#Cc1ccc(C(C)(C)C)cc1 [Compound 2] | 3 | –
CNCCN(C)Cc1c[nH]nc1C#Cc1ccc(F)cc1 [Compound 4] | > 10 | > 10
CNCCN(C)Cc1c[nH]nc1/C=C/c1ccc(-c2ccccc2)cc1 [Compound 5] | 1.45 | –
CNCCN(C)Cc1c[nH]nc1/C=C/c1ccc(C(F)(F)F)cc1 [Compound 6] | 3.94 | –
CNCCN(C)Cc1c[nH]nc1/C=C/c1ccc(OC)cc1 [Compound 7] | 5.91 | –
Cc1ccc(/C=C/c2n[nH]cc2CN(C)CCN)cc1 [Compound 8] | 5.81 | –
CN(CCN)Cc1c[nH]nc1C1=CCOCC1 [Compound 10] | > 10 | > 10
COc1cc(/C=C/c2n[nH]cc2CN(C)CCN)cc(OC)c1 [Compound 11] | 1.58 | –
CN(CCN)Cc1c[nH]nc1C1CC1 [Compound 12] | > 10 | > 10
CN(CCN)Cc1c[nH]nc1/C=C/c1ccc(F)cc1F [Compound 13] | 3.62 | –
CN(CCN)Cc1c[nH]nc1/C=C/c1cc(C(F)(F)F)cc(C(F)(F)F)c1 [Compound 14] | 6.77 | –
CN(CCN)Cc1c[nH]nc1/C=C/c1cc(F)cc(F)c1 [Compound 15] | 2.34 | –
CN(CCN)Cc1c[nH]nc1/C=C/c1cccc(C(F)(F)F)c1 [Compound 16] | 5.79 | –
COc1cccc(/C=C/c2n[nH]cc2CN(C)CCN)c1 [Compound 17] | 2.36 | –
CN(CCN)Cc1c[nH]nc1/C=C/c1ccc(C(F)(F)F)cc1 [Compound 18] | 1.75 | –
COC/C=C/c1n[nH]cc1CN(C)CCN [Compound 19] | 7.74 | –
CN(CCN)Cc1c[nH]nc1/C=C/c1cccc(F)c1 [Compound 20] | 2.34 | –
CC(C)c1n[nH]cc1CN(C)CCN [Compound 21] | > 10 | > 10
CN(CCN)Cc1c[nH]nc1C1CCCCC1 [Compound 22] | 6.46 | –
CN(CCN)Cc1c[nH]nc1CCc1ccc(F)cc1 [Compound 23, N^1-((3-(4-fluorophenethyl)-1H-pyrazol-4-yl)methyl)-N^1-methylethane-1,2-diamine] | 9.65 | –
CN(CCN)Cc1c[nH]nc1/C=C/Cc1ccccc1 [Compound 24] | > 10 | > 10
